Measured values: patent publication US20040022780A1, “Serine protease and topical retinoid compositions useful for treatment of acne vulgarise and production of anti-aging effects” (priority 1997, published 2004)

System: Rhino mouse skin
Assay: Histology after suboptimal trypsin, all-trans retinoic acid or both
Type: in vivo
Details: suboptimal dose alone: 0.005% (w/v) trypsin or 0.0005% (w/v) all-trans retinoic acid
Experimental: A first set of Rhino mice of Example 1 were treated with suboptimal doses of the trypsin composition of Example 2. […] A second set of Rhino mice of Example 1 were treated with suboptimal concentrations of the all-trans retinoic acid composition of Example 2. A third set of Rhino mice of Example 1 were treated with both suboptimal doses of the trypsin composition of Example 2 and the all-trans retinoic acid composition of Example 2. In this third set of Rhino mice, the trypsin and all-trans retinoic acid treatments were each administered daily, but at different times (i.e. trypsin in the morning and all-trans retinoic acid in the afternoon). Mice were sacrificed and their skins were examined histologically with the procedure set forth in Example 3.

## CC1=C(/C=C/C(C)=C/C=C/C(C)=C/C(=O)O)C(C)(C)CCC1 [all-trans retinoic acid, reference compound]
  skin histology of treatment given alone vs untreated skin: marked inprovement
